Results published in ChEMBL document CHEMBL1201861, “Genomics of Drug Sensitity in Cancer screening data, Wellcome Trust Sanger Institute”.

Columns and labels:
Test in all cases: cells
CP50-MEL-B = assay type: functional, cell-based; conditions: Homo sapiens;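 also: growth inhibition of the human cell line, measured with a cell viability read-out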
Description: SANGER: Inhibition of human CP50-MEL-B cell growth in a cell viability assay.

Ca9-22 = assay type: functional, cell-based; conditions: Homo sapiens;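 also: growth inhibition of Ca9-22 cells, read out with a cell viability assay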
Description: SANGER: Inhibition of human Ca9-22 cell growth in a cell viability assay.

D-336MG = assay type: functional, cell-based, Homo sapiens; conditions: Homo sapiens, D-336MG
Description: SANGER: Inhibition of human D-336MG cell growth in a cell viability assay.

DMS-273 = assay type: functional, cell-based; conditions: Homo sapiens
Description: SANGER: Inhibition of human DMS-273 cell growth in a cell viability assay.

DOK = assay type: functional, cell-based; conditions: Homo sapiens;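 also: cell viability assay read-out, values reflect inhibition of cell growth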
Description: SANGER: Inhibition of human DOK cell growth in a cell viability assay.

G-361 = assay type: functional, cell-based; conditions: Homo sapiens
HCC1395 = assay type: functional, cell-based; conditions: Homo sapiens;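 also: growth inhibition of HCC1395 cells, read out by a cell viability assay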
Description: SANGER: Inhibition of human HCC1395 cell growth in a cell viability assay.

HGC-27 = assay type: functional, cell-based; conditions: Homo sapiens;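 also: growth inhibition of human HGC-27 cells, read out in a cell viability assay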
Description: SANGER: Inhibition of human HGC-27 cell growth in a cell viability assay.

HSC-2 = assay type: functional, cell-based; conditions: Homo sapiens;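 also: growth inhibition of human HSC-2 cells, read out by a cell viability assay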
Description: SANGER: Inhibition of human HSC-2 cell growth in a cell viability assay.

HT-29 = assay type: functional, cell-based; conditions: Homo sapiens;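 also: growth inhibition of human HT-29 cells, read out by a cell viability assay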
Description: SANGER: Inhibition of human HT-29 cell growth in a cell viability assay.

Huh-7 = assay type: functional, cell-based; conditions: Homo sapiens;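 also: HuH-7 cell growth inhibition, read out with a cell viability assay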
Description: SANGER: Inhibition of human HuH-7 cell growth in a cell viability assay.

IGR-1 = assay type: functional, cell-based; conditions: Homo sapiens;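 also: growth inhibition of human IGR-1 cells, read out with a cell viability assay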
Description: SANGER: Inhibition of human IGR-1 cell growth in a cell viability assay.

KOSC-2 = assay type: functional, cell-based; conditions: Homo sapiens;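 also: growth inhibition of KOSC-2 cells, read out by a cell viability assay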
Description: SANGER: Inhibition of human KOSC-2 cell growth in a cell viability assay.

M059J = assay type: functional, cell-based; conditions: Homo sapiens;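 also: growth inhibition of M059J cells, read out with a cell viability assay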
Description: SANGER: Inhibition of human M059J cell growth in a cell viability assay.

MC-IXC = assay type: functional, cell-based; conditions: Homo sapiens;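 also: growth inhibition of MC-IXC cells, read out with a cell viability assay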
Description: SANGER: Inhibition of human MC-IXC cell growth in a cell viability assay.

MDA-MB-157 = assay type: functional, cell-based; conditions: Homo sapiens
Description: SANGER: Inhibition of human MDA-MB-157 cell growth in a cell viability assay.

NB17 = assay type: functional, cell-based, Homo sapiens; conditions: Homo sapiens, NB17;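 also: growth inhibition of NB17 cells, read out with a cell viability assay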
Description: SANGER: Inhibition of human NB17 cell growth in a cell viability assay.

NCI-H1563 = assay type: functional, cell-based; conditions: Homo sapiens;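 also: growth inhibition of human NCI-H1563 cells, read out with a cell viability assay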
Description: SANGER: Inhibition of human NCI-H1563 cell growth in a cell viability assay.

NCI-H1623 = assay type: functional, cell-based; conditions: Homo sapiens;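 also: cell viability assay used as the read-out for growth inhibition of NCI-H1623 cells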
Description: SANGER: Inhibition of human NCI-H1623 cell growth in a cell viability assay.

NCI-H2122 = assay type: functional, cell-based; conditions: Homo sapiens;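 also: growth inhibition of the cells, read out with a cell viability assay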
Description: SANGER: Inhibition of human NCI-H2122 cell growth in a cell viability assay.

NCI-H2170 = assay type: functional, cell-based; conditions: Homo sapiens;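 also: cell viability assay measuring growth inhibition of human NCI-H2170 cancer cells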
Description: SANGER: Inhibition of human NCI-H2170 cell growth in a cell viability assay.

NCI-H2452 = assay type: functional, cell-based; conditions: Homo sapiens;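 also: growth inhibition of NCI-H2452 cells, read out with a cell viability assay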
Description: SANGER: Inhibition of human NCI-H2452 cell growth in a cell viability assay.

NCI-H358 = assay type: functional, cell-based; conditions: Homo sapiens;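 also: growth inhibition of NCI-H358 human cells, read out with a cell viability assay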
Description: SANGER: Inhibition of human NCI-H358 cell growth in a cell viability assay.

NCI-H596 = assay type: functional, cell-based; conditions: Homo sapiens;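 also: growth inhibition of NCI-H596 cells, read out with a cell viability assay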
Description: SANGER: Inhibition of human NCI-H596 cell growth in a cell viability assay.

NCI-H661 = assay type: functional, cell-based; conditions: Homo sapiens;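 also: cell viability assay read-out, IC50 being the concentration that inhibits growth of the cells by half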
Description: SANGER: Inhibition of human NCI-H661 cell growth in a cell viability assay.

NUGC-3 = assay type: functional, cell-based; conditions: Homo sapiens;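 also: growth inhibition of human NUGC-3 cells, read out with a cell viability assay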
Description: SANGER: Inhibition of human NUGC-3 cell growth in a cell viability assay.

OAW-28 = assay type: functional, cell-based; conditions: Homo sapiens;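 also: growth inhibition of OAW-28 cells, read out with a cell viability assay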
Description: SANGER: Inhibition of human OAW-28 cell growth in a cell viability assay.

OE19 = assay type: functional, cell-based; conditions: Homo sapiens;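 also: growth inhibition of OE19 cells, measured through a cell viability read-out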
Description: SANGER: Inhibition of human OE19 cell growth in a cell viability assay.

PANC-03-27 = assay type: functional, cell-based; conditions: Homo sapiens
Description: SANGER: Inhibition of human PANC-03-27 cell growth in a cell viability assay.

PC-14 = assay type: functional, cell-based; conditions: Homo sapiens;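 also: cell viability assay measuring inhibition of PC-14 cell growth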
Description: SANGER: Inhibition of human PC-14 cell growth in a cell viability assay.

PFSK-1 = assay type: functional, cell-based; conditions: Homo sapiens;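 also: cell viability assay measuring how strongly compounds suppress growth of human PFSK-1 cells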
Description: SANGER: Inhibition of human PFSK-1 cell growth in a cell viability assay.

RD = assay type: functional, cell-based; conditions: Homo sapiens
Description: SANGER: Inhibition of human RD cell growth in a cell viability assay.

SCC-25 = assay type: functional, cell-based; conditions: Homo sapiens;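 also: growth inhibition of SCC-25 cells, measured with a cell viability assay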
Description: SANGER: Inhibition of human SCC-25 cell growth in a cell viability assay.

SCC-9 = assay type: functional, cell-based; conditions: Homo sapiens;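 also: Read-out is a cell viability assay, with values giving inhibition of cell growth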
Description: SANGER: Inhibition of human SCC-9 cell growth in a cell viability assay.

SK-MEL3 = assay type: functional, cell-based, SK-MEL-3; conditions: Homo sapiens;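 also: growth inhibition of human SK-MEL-3 cells, read out with a cell viability assay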
Description: SANGER: Inhibition of human SK-MEL-3 cell growth in a cell viability assay.

SK-MEL-30 = assay type: functional, cell-based; conditions: Homo sapiens;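 also: growth inhibition of SK-MEL-30 cells, determined with a cell viability assay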
Description: SANGER: Inhibition of human SK-MEL-30 cell growth in a cell viability assay.

SKG-IIIa = assay type: functional, cell-based; conditions: Homo sapiens;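 also: cell growth inhibition, read out with a cell viability assay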
Description: SANGER: Inhibition of human SKG-IIIa cell growth in a cell viability assay.

SW1710 = assay type: functional, cell-based; conditions: Homo sapiens;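 also: growth inhibition of SW1710 cells, determined with a cell viability assay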
Description: SANGER: Inhibition of human SW1710 cell growth in a cell viability assay.

SW1990 = assay type: functional, cell-based; conditions: Homo sapiens;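 also: cell growth inhibition determined with a viability assay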
Description: SANGER: Inhibition of human SW1990 cell growth in a cell viability assay.

5637 = assay type: functional, cell-based; conditions: Homo sapiens
Description: SANGER: Inhibition of human 5637 cell growth in a cell viability assay.

AN3-CA = assay type: functional, cell-based; conditions: Homo sapiens;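 also: growth inhibition of human AN3-CA cells measured by a cell viability assay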
Description: SANGER: Inhibition of human AN3-CA cell growth in a cell viability assay.

AU565 = assay type: functional, cell-based; conditions: Homo sapiens;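 also: cell viability assay measuring growth inhibition of human AU565 cells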
Description: SANGER: Inhibition of human AU565 cell growth in a cell viability assay.

BFTC-905 = assay type: functional, cell-based; conditions: Homo sapiens
Description: SANGER: Inhibition of human BFTC-905 cell growth in a cell viability assay.

CAL-33 = assay type: functional, cell-based; conditions: Homo sapiens;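 also: growth inhibition of CAL-33 cells, read out with a cell viability assay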
Description: SANGER: Inhibition of human CAL-33 cell growth in a cell viability assay.

CAL-62 = assay type: functional, cell-based; conditions: Homo sapiens;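 also: growth inhibition of CAL-62 cells, read out with a cell viability assay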
Description: SANGER: Inhibition of human CAL-62 cell growth in a cell viability assay.

UACC-893 = assay type: functional, cell-based; conditions: Homo sapiens
Description: SANGER: Inhibition of human UACC-893 cell growth in a cell viability assay.

CAPAN-1 = assay type: functional, cell-based; conditions: Homo sapiens;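 also: growth suppression of CAPAN-1 cells, read out by a cell viability assay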
Description: SANGER: Inhibition of human CAPAN-1 cell growth in a cell viability assay.

**Q.** Which IC50 (CP50-MEL-B) does the source give for `NC(=O)c1ccc(N(C(N)=O)c2c(F)cccc2F)nc1-c1ccc(F)cc1F` [VX-702] here?
**A.** Its IC50 is over 2 µM.

**Q.** What about the IC50 (Ca9-22) of the same molecule?
**A.** Its IC50 is over 2 µM.

**Q.** And the IC50 (D-336MG)?
**A.** The IC50 was over 2 µM.

**Q.** And the IC50 (DMS-273)?
**A.** The IC50 was over 2 µM.

**Q.** What about the IC50 (DOK) of the same molecule?
**A.** Its IC50 is over 2 µM.

**Q.** And the IC50 (G-361)?
**A.** The IC50 was 1.5 µM.

**Q.** What about the IC50 (HCC1395) of the same molecule?
**A.** Its IC50 is over 2 µM.

**Q.** What about the IC50 (HGC-27) of the same molecule?
**A.** Its IC50 is over 2 µM.

**Q.** And the IC50 (HSC-2)?
**A.** The IC50 was over 2 µM.

**Q.** What about the IC50 (HT-29) of the same molecule?
**A.** Its IC50 is over 2 µM.

**Q.** And the IC50 (Huh-7)?
**A.** The IC50 was over 2 µM.

**Q.** What about the IC50 (IGR-1) of the same molecule?
**A.** The IC50 was over 2 µM.

**Q.** And the IC50 (KOSC-2)?
**A.** Its IC50 is over 2 µM.

**Q.** And the IC50 (M059J)?
**A.** Its IC50 is over 2 µM.

**Q.** And the IC50 (MC-IXC)?
**A.** The IC50 was over 2 µM.

**Q.** What about the IC50 (MDA-MB-157) of the same molecule?
**A.** The IC50 was over 2 µM.

**Q.** What about the IC50 (NB17) of the same molecule?
**A.** The IC50 was over 2 µM.

**Q.** And the IC50 (NCI-H1563)?
**A.** The IC50 was over 2 µM.

**Q.** What about the IC50 (NCI-H1623) of the same molecule?
**A.** Its IC50 is over 2 µM.

**Q.** What about the IC50 (NCI-H2122) of the same molecule?
**A.** The IC50 was over 2 µM.

**Q.** And the IC50 (NCI-H2170)?
**A.** Its IC50 is over 2 µM.

**Q.** What about the IC50 (NCI-H2452) of the same molecule?
**A.** The IC50 was over 2 µM.

**Q.** And the IC50 (NCI-H358)?
**A.** Its IC50 is over 2 µM.

**Q.** What about the IC50 (NCI-H596) of the same molecule?
**A.** Its IC50 is over 2 µM.

**Q.** What about the IC50 (NCI-H661) of the same molecule?
**A.** Its IC50 is over 2 µM.

**Q.** And the IC50 (NUGC-3)?
**A.** Its IC50 is over 2 µM.

**Q.** What about the IC50 (OAW-28) of the same molecule?
**A.** The IC50 was over 2 µM.

**Q.** What about the IC50 (OE19) of the same molecule?
**A.** The IC50 was over 2 µM.

**Q.** What about the IC50 (PANC-03-27) of the same molecule?
**A.** Its IC50 is over 2 µM.

**Q.** What about the IC50 (PC-14) of the same molecule?
**A.** The IC50 was over 2 µM.

**Q.** And the IC50 (PFSK-1)?
**A.** Its IC50 is over 2 µM.

**Q.** And the IC50 (RD)?
**A.** Its IC50 is over 2 µM.

**Q.** What about the IC50 (SCC-25) of the same molecule?
**A.** The IC50 was over 2 µM.

**Q.** And the IC50 (SCC-9)?
**A.** The IC50 was over 2 µM.

**Q.** And the IC50 (SK-MEL3)?
**A.** Its IC50 is over 2 µM.

**Q.** And the IC50 (SK-MEL-30)?
**A.** The IC50 was over 2 µM.

**Q.** What about the IC50 (SKG-IIIa) of the same molecule?
**A.** The IC50 was over 2 µM.

**Q.** And the IC50 (SW1710)?
**A.** The IC50 was over 2 µM.

**Q.** What about the IC50 (SW1990) of the same molecule?
**A.** Its IC50 is over 2 µM.

**Q.** What about the IC50 5637 of the same molecule?
**A.** Its IC50 is over 2 µM.

**Q.** What about the IC50 (AN3-CA) of the same molecule?
**A.** The IC50 was over 2 µM.

**Q.** And the IC50 (AU565)?
**A.** Its IC50 is over 2 µM.

**Q.** What about the IC50 (BFTC-905) of the same molecule?
**A.** The IC50 was over 2 µM.

**Q.** And the IC50 (CAL-33)?
**A.** The IC50 was over 2 µM.

**Q.** What about the IC50 (CAL-62) of the same molecule?
**A.** The IC50 was over 2 µM.

**Q.** And the IC50 (UACC-893)?
**A.** The IC50 was over 2 µM.

**Q.** And the IC50 (CAPAN-1)?
**A.** The IC50 was over 2 µM.

**Q.** Which results are given for `NC(=O)Nc1cc(-c2cccc(F)c2)sc1C(=O)N[C@H]1CCCNC1` [AZD-7762]?
**A.** IC50 (CP50-MEL-B): > 2 µM; IC50 (Ca9-22): 0.541 µM; IC50 (D-336MG): 0.421 µM; IC50 (DMS-273): 0.755 µM; IC50 (DOK): > 2 µM; IC50 (G-361): 0.387 µM; IC50 (HCC1395): 0.271 µM; IC50 (HGC-27): 0.491 µM; IC50 (HSC-2): 0.873 µM; IC50 (HT-29): 0.894 µM; IC50 (Huh-7): 1.4 µM; IC50 (IGR-1): > 2 µM; IC50 (KOSC-2): 0.247 µM; IC50 (M059J): 1.07 µM; IC50 (MC-IXC): 0.128 µM; IC50 (MDA-MB-157): 0.0866 µM; IC50 (NB17): 0.158 µM; IC50 (NCI-H1563): 0.47 µM; IC50 (NCI-H1623): > 2 µM; IC50 (NCI-H2122): 0.123 µM; IC50 (NCI-H2170): 1.52 µM; IC50 (NCI-H2452): 0.936 µM; IC50 (NCI-H358): 1.43 µM; IC50 (NCI-H596): > 2 µM; IC50 (NCI-H661): 0.637 µM; IC50 (NUGC-3): > 2 µM; IC50 (OAW-28): 1.85 µM; IC50 (OE19): > 2 µM; IC50 (PANC-03-27): 0.143 µM; IC50 (PC-14): 0.417 µM; IC50 (PFSK-1): 0.411 µM; IC50 (RD): > 2 µM; IC50 (SCC-25): > 2 µM; IC50 (SCC-9): 1.99 µM; IC50 (SK-MEL3): > 2 µM; IC50 (SK-MEL-30): > 2 µM; IC50 (SKG-IIIa): 0.65 µM; IC50 (SW1710): 0.64 µM; IC50 (SW1990): 0.384 µM; IC50 5637: 0.193 µM; IC50 (AN3-CA): 0.837 µM; IC50 (AU565): 0.824 µM; IC50 (BFTC-905): 0.985 µM; IC50 (CAL-33): 0.984 µM; IC50 (CAL-62): 0.571 µM; IC50 (UACC-893): > 2 µM; IC50 (CAPAN-1): > 2 µM
